One series deals with T1, CYP2C8 (Homo sapiens, UniProt P10632).
T1 sequence (P10632 1-490): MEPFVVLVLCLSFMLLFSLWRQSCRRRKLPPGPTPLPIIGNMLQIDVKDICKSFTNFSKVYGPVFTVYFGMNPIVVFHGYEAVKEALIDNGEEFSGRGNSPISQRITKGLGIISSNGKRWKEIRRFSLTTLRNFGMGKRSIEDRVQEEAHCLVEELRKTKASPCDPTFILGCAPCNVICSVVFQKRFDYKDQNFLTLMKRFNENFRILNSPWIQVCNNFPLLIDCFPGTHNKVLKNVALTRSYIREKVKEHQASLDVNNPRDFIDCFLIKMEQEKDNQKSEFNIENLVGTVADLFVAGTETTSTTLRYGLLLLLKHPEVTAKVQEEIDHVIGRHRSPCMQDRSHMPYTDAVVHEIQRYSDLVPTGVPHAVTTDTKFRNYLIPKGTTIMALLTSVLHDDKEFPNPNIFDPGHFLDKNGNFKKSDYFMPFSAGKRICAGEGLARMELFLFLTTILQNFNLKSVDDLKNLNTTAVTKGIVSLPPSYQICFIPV
Kind of series: Time-dependent inhibition (IC50 shift) of CYP2C8 in human liver microsomes. Conditions: microsomes. As for the experimental part: Donors CMV negative for serology are unm
All incubations were conducted in duplicate.
% remaining=(C+I/C^−I)*100

In a further series the target is T2, CYP2B6 (Homo sapiens, UniProt P20813).
T2 sequence (P20813 1-491): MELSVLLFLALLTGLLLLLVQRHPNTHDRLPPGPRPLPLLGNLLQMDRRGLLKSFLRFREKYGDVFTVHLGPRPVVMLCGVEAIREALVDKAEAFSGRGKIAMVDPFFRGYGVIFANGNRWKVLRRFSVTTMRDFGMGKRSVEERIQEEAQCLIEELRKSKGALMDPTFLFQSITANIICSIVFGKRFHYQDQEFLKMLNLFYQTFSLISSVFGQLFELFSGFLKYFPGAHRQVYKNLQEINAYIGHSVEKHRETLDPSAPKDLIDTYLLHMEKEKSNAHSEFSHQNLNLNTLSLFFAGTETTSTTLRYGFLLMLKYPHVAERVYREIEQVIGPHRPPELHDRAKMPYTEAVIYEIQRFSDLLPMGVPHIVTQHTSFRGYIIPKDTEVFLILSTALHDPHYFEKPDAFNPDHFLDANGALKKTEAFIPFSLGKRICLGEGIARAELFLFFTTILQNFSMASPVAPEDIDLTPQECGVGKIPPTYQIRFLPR
Description: biochemical.

The conditions of series [1]: urine; cited from earlier work.

Molecules are shown by their SMILES.

Usually IC50 stands for the midpoint of a concentration-inhibition curve.

Regarding `Cc1ccc(C)c(OCCCC(C)(C)C(=O)O[C@@H]2O[C@H](C(=O)O)[C@@H](O)[C@H](O)[C@H]2O)c1` [Gemfibrozil glucuronide, reference compound], the IC50 on CYP2C8 stood at 760 nM.
As for `CC(=O)N1CCN(c2ccc(OCC3COC(Cn4ccnc4)(c4ccc(Cl)cc4Cl)O3)cc2)CC1` (stereo not drawn) [Ketoconazole, reference compound], 3400 nM corresponded to half-maximal inhibition at CYP2B6 (IC50).
Regarding `Cc1ncc2n1-c1ccc(Cl)cc1C(c1ccccc1F)=NC2` [midazolam, 8-chloro-6-(2-fluorophenyl)-1-methyl-4H-imidazo[1,5-a][1,4]], the dose excreted unchanged in series [1] is 1%.

The record behind these values is patent US20220168307A1, “TREATMENT OF SMA” (Hoffmann-La Roche Inc., priority 2019, published 2022).
